Assay results taken from patent EP0096457B1, “Indium complexes of substituted 8-hydroxy-quinolines, pharmaceutical compositions containing them and their use as antibacterial agents” (NATIONAL RESEARCH DEVELOPMENT CORPORATION, priority 1982, dated 1983).
≈ marks a conversion by molar mass, not a printed value.

Tests used:
[1] = tested on: Escherichia coli (018; co1V^+); test: Minimal inhibitory concentration (MIC) in broth culture; format: cell-based; settings: trypticase soy broth with sodium bicarbonate, approx. 10^4 bacteria per ml, 18 hours at 37°C, 5% CO2 in air, lowest concentration with no visible growth, read-out: MIC Values E. coli
Protocol: (§1) Experiments were carried out to find the minimal inhibitory concentrations (MIC) for solutions of various indium complexes against Staphylococcus aureus (human isolate), Escherichia coli (018; co1V^+) and Klebsiella pneumoniae and to compare these with the MIC values for the corresponding metal-free compounds. The complexes were prepared in solution as described in Example 1 except that in the case of the complex of 7-iodo-8-hydroxyquinoline 5-sulphonic acid, 5 molar equivalents of metal-free compound were reacted with the indium chloride trihydrate and the solution was prepared in water. The solutions of the metal-free compounds were prepared in the same solvent as used for the equivalent complex.
(§2) The culture medium used consisted of a 9:1 mixture of trypticase soy broth and 6% w/v aqueous sodium bicarbonate solution. The medium was bulk inoculated with approximately 10^4 test bacteria per ml and 5.0 ml aliquots were then dispensed into sterile 20 ml bottles to which 0.05 ml of the test solution had been added. The test solutions were obtained from the original solution of the indium complex or metal-free compound by dilution to give a suitable range of concentrations in µM. Control samples, to which either no test solution was added or to which the solvent of the test solution only was added, were also prepared.
(§3) For each compound tested the samples at the various concentrations were studied to determine the lowest concentration of the compound at which no growth could be seen. The MIC values thus obtained are shown in Table 1 where it will be seen that the values are in each case lower for the indium complex as compared with the metal-free compound.

[2] = tested on: Klebsiella pneumoniae; test: as above; format: cell-based; settings: trypticase soy broth with sodium bicarbonate, approx. 10^4 bacteria per ml, 18 hours at 37°C, 5% CO2 in air, lowest concentration with no visible growth, read-out: MIC Values K. pneumoniae
Protocol: as §1, §2, §3

[3] = tested on: Staphylococcus aureus (human isolate); test: as above; format: cell-based; settings: trypticase soy broth with sodium bicarbonate, approx. 10^4 bacteria per ml, 18 hours at 37°C, 5% CO2 in air, lowest concentration with no visible growth, read-out: MIC Values S. aureus
Protocol: as §1, §2, §3

[4] = tested on: E. coli (108, co1V^+); format: in vivo; settings: groups of 5 Parks mice infected i.p. with 8.0 x 10^6 E. coli, i.p. treatment 0.2 ml twice per day for 1 day (indium complex 4.6 mg/kg, metal-free compound 3.4 mg/kg per dose)
Protocol: (§4) The solutions for administration were prepared as follows: • (1) 2 equivalents of 5,7-dichloro-8-hydroxyquinoline were dissolved in a 15 mM solution of InCl3·3H2O in ethanol containing 1% v/v of glycerol. A 1.0 ml aliquot of this solution was dried in vacuo using a sterile universal container and the resultant residue was treated with 15 ml of sterile 0.15 M aqueous sodium chloride containing 1 % w/v of sodium bicarbonate and the solid dispersed by sonication. A 0.2 ml dose of the final preparation corresponds to a dose of 4.6 mg/kg in a 25 g mouse. • (2) 6.4 mg of 5,7-dichloro-8-hydroxyquinoline were moistened by the addition of 0.05 ml of dimethyl sulphoxide and to the moistened material was added 15 ml of sterile 0.15 M aqueous sodium chloride containing 1% w/v of sodium bicarbonate, the solid then being dispersed by sonication. A 0.2 ml dose of the final preparation corresponds to a dose of 3.4 mg/kg in a 25 g mouse.
Groups of 5 male or female Parks mice weighing from 23-25 g were infected by intraperitoneal injection of one of 8.0 x 10^6 E. coli, 3.5 x 10^5 K. pneumoniae and 7.0 x 10^8 S. aureus, the organisms in each case being suspended in 0.2 ml of 10% v/v trypticase soy broth in 0.15 M aqueous sodium chloride, three groups of mice being infected with each organism. […]

[5] = tested on: K. pneumoniae; test: In vivo test in intraperitoneally infected mice (deaths); settings: groups of 5 Parks mice infected i.p. with 3.5 x 10^5 K. pneumoniae, i.p. treatment 0.2 ml twice per day for 4 days (indium complex 4.6 mg/kg, metal-free compound 3.4 mg/kg per dose)
Protocol: as §4
(§5) Groups of 5 male or female Parks mice weighing from 23-25 g were infected by intraperitoneal injection of one of 8.0 x 10^6 E. coli, 3.5 x 10^5 K. pneumoniae and 7.0 x 10^8 S. aureus, the organisms in each case being suspended in 0.2 ml of 10% v/v trypticase soy broth in 0.15 M aqueous sodium chloride, three groups of mice being infected with each organism. For each organism, one of the three groups of infected mice was treated by intraperitoneal injection with 0.2 ml of a suspension of the indium complex whilst a second group was similarly treated with 0.2 ml of a supsension of the metal-free compound. The treatment was given twice per day for 1 day in the case of E. coli infection, twice per day for 4 days in the case of K. pneumoniae infection, and twice per day for 2 days in the case of the S. aureus infection. The third group of mice in each case received no treatment.

[6] = tested on: S. aureus (human isolate); test: as above; settings: groups of 5 Parks mice infected i.p. with 7.0 x 10^8 S. aureus, i.p. treatment 0.2 ml twice per day for 2 days (indium complex 4.6 mg/kg, metal-free compound 3.4 mg/kg per dose)
Protocol: as §4, §5

SMILES | MIC [1] | MIC [2] | MIC [3] | Deaths at 7 days [4] | Deaths % ([4]; at 7 days) | Deaths at 7 days [5] | Deaths % ([5]; at 7 days) | Deaths at 7 days [6] | Deaths % ([6]; at 7 days)
Oc1ccc(Cl)c2cccnc12 [5-Chloro-8-hydroxyquinoline] | 38.5 µM (≈ 6.91 µg/mL) | 38.5 µM (≈ 6.91 µg/mL) | 18.8 µM (≈ 3.38 µg/mL) | – | – | – | – | – | –
Oc1c(Cl)cc(Cl)c2cccnc12 [5,7-dichloro-8-hydroxyquinoline] | 100 µM (≈ 21.4 µg/mL) | 100 µM (≈ 21.4 µg/mL) | 6.3 µM (≈ 1.35 µg/mL) | 5 | 100% | 5 | 100% | 4 | 80%
O=S(=O)(O)c1cc(I)c(O)c2ncccc12 [7-Iodo-8-hydroxyquinoline 5-sulphonic acid] | > 500 µM | > 500 µM | > 500 µM | – | – | – | – | – | –
